Experimental data published in patent publication US8124624B2, “Substituted sulfonamide compounds” (Gruenenthal GmbH, priority 2008, dated 2012).

Molecular target: T1, B1R of the rat (Rattus norvegicus, UniProt P97583)
T1 construct: expressed in transfected cells; host or cells: CHO K1 cells (rB1R cells)
T1 sequence (P97583 1-337): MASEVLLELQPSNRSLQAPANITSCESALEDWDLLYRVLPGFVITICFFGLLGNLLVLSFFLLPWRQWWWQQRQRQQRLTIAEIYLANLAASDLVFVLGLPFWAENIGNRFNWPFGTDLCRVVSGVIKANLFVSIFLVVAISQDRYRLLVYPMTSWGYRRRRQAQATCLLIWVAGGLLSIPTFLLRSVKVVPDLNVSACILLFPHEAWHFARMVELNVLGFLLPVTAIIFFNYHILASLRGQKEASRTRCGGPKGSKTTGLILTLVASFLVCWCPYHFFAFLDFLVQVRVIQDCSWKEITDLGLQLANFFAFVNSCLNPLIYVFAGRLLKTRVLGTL
Test: FLIPR Ca2+ influx assay, B1R antagonism, rat (rB1R CHO K1 cells)
Type: cell-based
Conditions: test substance 10 μM, CHO K1 cells stably transfected with rat B1R, agonist Des-Arg9-bradykinin at EC80, % inhibition compared with maximum achievable inhibition; for inhibition at 10 µM: read-out: B1R antagonism, rat [10 μM] % inhibition
Method: The agonistic or antagonistic action of substances can be quantified on the bradykinin receptor 1 (B1R) of the species human and rat using ectopically expressing cell lines (CHO K1 cells) and with the aid of a Ca^2+-sensitive dye (Fluo-4) using a fluorescent imaging plate reader (FLIPR). The indication in % activation is based on the Ca^2+ signal after addition of Lys-Des-Arg^9-bradykinin (0.5 nM) or Des-Arg^9-bradykinin (100 nM). Antagonists lead to suppression of the Ca^2+ influx after the addition of the agonist. % Inhibition compared with the maximum achievable inhibition is indicated.
The agonistic or antagonistic action of substances can be determined on the bradykinin receptor 1 (B1R) of the species human and rat using the following assay. According to this assay, the Ca^2+ influx through the channel is quantified with the aid of a Ca^2+-sensitive dye (Fluo-4 type, Molecular Probes Europe BV, Leiden, Netherlands) using a Fluorescent Imaging Plate Reader (FLIPR, Molecular Devices, Sunnyvale, USA).
Chinese hamster ovary cells (CHO K1 cells) which have been stably transfected with the human B1R gene (hB1R cells) or with the B1R gene of the rat (rB1R cells) are used. For functional studies, the cells are plated out on black 96-well plates having a clear base (BD Biosciences, Heidelberg, Germany or Greiner, Frickenhausen, Germany) in a density of 20,000-35,000 cells/well. The cells are incubated overnight at 37° C. and with 5% CO2 in culture medium (hB1R cells: Nutrient Mixture Ham's F12, Gibco Invitrogen GmbH, Karlsruhe, Germany or DMEM, Sigma-Aldrich, Taufkirchen, Germany; rB1R cells: D-MEM/F12, Gibco Invitrogen GmbH, Karlsruhe, Germany), with 10 vol. % FBS (fetal bovine serum, Gibco Invitrogen GmbH, Karlsruhe, Germany or PAN Biotech GmbH, Aidenbach, Germany).
On the following day, the cells are loaded for 60 minutes at 37° C. with 2.13 μM Fluo-4 (Molecular Probes Europe BV, Leiden, Netherlands) in HBSS buffer (Hank's buffered saline solution, Gibco Invitrogen GmbH, Karlsruhe, Germany) […] (Sigma-Aldrich, Taufkirchen, Germany) and 10 mM HEPES (Sigma-Aldrich, Taufkirchen, Germany). The plates are then washed twice with HBSS buffer, and HBSS buffer additionally containing 0.1% BSA (bovine serum albumin; Sigma-Aldrich, Taufkirchen, Germany), 5.6 mM glucose and 0.05% gelatin (Merck KGaA, Darmstadt, Germany) is added to the plates. After incubation for a further 20 minutes at room temperature, the plates are inserted into the FLIPR for Ca^2+ measurement.
Alternatively, washing is carried out with buffer A (15 mM HEPES, 80 mM NaCl, 5 mM KCl, 1.2 mM CaCl2, 0.7 mM MgSO4, 2 g/l glucose, 2.5 mM probenecid) followed by loading with buffer A with added 2.5 μM Fluo-4 and 0.025% Pluronic F127 (Sigma-Aldrich, Taufkirchen, Germany). The cells are then washed twice with buffer A and incubated for 30 minutes at room temperature with buffer A additionally containing 0.05% BSA and 0.05% gelatin and are then inserted into the FLIPR for Ca^2+ measurement.
The Ca^2+-dependent fluorescence is measured before and after the addition of substances (λex=488 nm, λem=540 nm). Quantification is carried out by measuring the highest fluorescence intensity (FC, fluorescence counts) over time.
The FLIPR protocol consists of two substance additions. Test substances (10 μM) are first pipetted onto the cells and the Ca^2+ influx is compared with the control (hB1R: Lys-Des-Arg^9-bradykinin >=50 nM; rB1R: Des-Arg^9-bradykinin 10 μM). This gives the activation in %, based on the Ca^2+ signal after addition of Lys-Des-Arg^9-bradykinin (>=50 nM) or Des-Arg^9-bradykinin (10 μM). After 10-20 minutes' incubation, Lys-Des-Arg^9-bradykinin (hB1R) or Des-Arg^9-bradykinin (rB1R) is applied in the concentration of the EC80, and the influx of Ca^2+ is likewise determined. Antagonists lead to suppression of the Ca^2+ influx. The % inhibition compared with the maximum achievable inhibition is calculated. […]

| Compound | inhibition at 10 µM [%] | B1R antagonism, rat [10 μM] % inhibition [%] |
| --- | --- | --- |
| COc1cc(C)c(S(=O)(=O)N(CCOCC(=O)N2CCC(CCCN3CCCC3)(c3ccncc3)CC2)c2ccccc2)c(C)c1 [Example 50, 4-Methoxy-2,6-Dimethyl-N-[2-[2-oxo-2-[4-pyridin-4-yl-4-(3-pyrrolidin-1-yl-propyl)-piperidin-1-yl]-ethoxy]-ethyl]-N-phenyl-benzenesulfonic acid amide] | 100 |  |
| O=C(COCC1CCc2ccccc2N1S(=O)(=O)c1ccc2ccccc2c1)N1CCC(CCCN2CCCC2)(c2cccnc2)CC1 (centres unmarked) [Example 51, 2-[[1-(Naphthalen-2-ylsulfonyl)-1,2,3,4-tetrahydro-quinolin-2-yl]-methoxy]-1-[4-pyridin-3-yl-4-(3-pyrrolidin-1-yl-propyl)-piperidin-1-yl]-ethanone] | 80 |  |
| O=C(COCC1CCc2ccccc2N1S(=O)(=O)c1ccc2ccccc2c1)N1CCC(CCCN2CCCC2)(c2cccnc2)CC1 (centres unmarked) [Example 52, 2-[[1-(Naphthalen-2-ylsulfonyl)-1,2,3,4-tetrahydro-quinolin-2-yl]-methoxy]-1-[4-pyridin-3-yl-4-(3-pyrrolidin-1-yl-propyl)-piperidin-1-yl]-ethanone] |  | 83 |
| COc1cc(C)c(S(=O)(=O)N2c3ccccc3CCC2COCC(=O)N2CCC(CCCN3CCCC3)(c3ccncc3)CC2)c(C)c1 (centres unmarked) [Example 55, 2-[[1-[(4-Methoxy-2,6-dimethyl-phenyl)sulfonyl]-1,2,3,4-tetrahydro-quinolin-2-yl]-methoxy]-1-[4-pyridin-4-yl-4-(3-pyrrolidin-1-yl-propyl)-piperidin-1-yl]-ethanone] | 98 |  |
| Cc1cccc(Cl)c1S(=O)(=O)N1CCCCC1CCCC(=O)N1CCC(CCCN2CCCC2)(c2ccncc2)CC1 (centres unmarked) [Example 56, 4-[1-[(2-Chloro-6-methyl-phenyl)sulfonyl]-piperidin-2-yl]-1-[4-pyridin-4-yl-4-(3-pyrrolidin-1-yl-propyl)-piperidin-1-yl]-butan-1-one] | 97 |  |
| O=C(CCCC1CCCCN1S(=O)(=O)c1ccccc1C(F)(F)F)N1CCC(CCCN2CCCC2)(c2cccnc2)CC1 (centres unmarked) [Example 57, 1-[4-Pyridin-3-yl-4-(3-pyrrolidin-1-yl-propyl)-piperidin-1-yl]-4-[1-[[2-(trifluoromethyl)-phenyl]sulfonyl]-piperidin-2-yl]-butan-1-one] | 70 |  |
| O=C(CCCC1CCCCN1S(=O)(=O)c1ccccc1C(F)(F)F)N1CCC(CCCN2CCCC2)(c2ccncc2)CC1 (centres unmarked) [Example 58, 1-[4-Pyridin-4-yl-4-(3-pyrrolidin-1-yl-propyl)-piperidin-1-yl]-4-[1-[[2-(trifluoromethyl)-phenyl]sulfonyl]-piperidin-2-yl]-butan-1-one] | 99 |  |
| O=C(CCCC1CCCCN1S(=O)(=O)c1ccccc1C(F)(F)F)N1CCC(CCCN2CCCC2)(c2ccncc2)CC1 (centres unmarked) [Example 59, 1-[4-Pyridin-4-yl-4-(3-pyrrolidin-1-yl-propyl)-piperidin-1-yl]-4-[1-[[2-(trifluoromethyl)-phenyl]sulfonyl]-piperidin-2-yl]-butan-1-one] |  | 101 |
| COc1cc(C)c(S(=O)(=O)N2CCCCC2CCCC(=O)N2CCC(CCCN3CCCC3)(c3ccncc3)CC2)c(C)c1 (centres unmarked) [Example 62, 4-[1-[(4-Methoxy-2,6-dimethyl-phenyl)sulfonyl]-piperidin-2-yl]-1-[4-pyridin-4-yl-4-(3-pyrrolidin-1-yl-propyl)-piperidin-1-yl]-butan-1-one] | 100 |  |
| COc1cc(C)c(S(=O)(=O)N2CCCCC2CCCC(=O)N2CCC(CCCN3CCCC3)(c3ccncc3)CC2)c(C)c1 (centres unmarked) [Example 63, 4-[1-[(4-Methoxy-2,6-dimethyl-phenyl)sulfonyl]-piperidin-2-yl]-1-[4-pyridin-4-yl-4-(3-pyrrolidin-1-yl-propyl)-piperidin-1-yl]-butan-1-one] |  | 102 |
| O=C(CCCC1CCCCN1S(=O)(=O)c1cccc2ccccc12)N1CCC(CCCN2CCCC2)(c2ccncc2)CC1 (centres unmarked) [Example 64, 4-[1-(Naphthalen-1-ylsulfonyl)-piperidin-2-yl]-1-[4-pyridin-4-yl-4-(3-pyrrolidin-1-yl-propyl)-piperidin-1-yl]-butan-1-one] | 46 |  |
| CS(=O)(=O)N(CCOCC(=O)N1CCC(CCCN2CCCC2)(c2ccncc2)CC1)C(c1ccccc1)c1ccccc1 [Example 65, N-Benzhydryl-N-[2-[2-oxo-2-[4-pyridin-4-yl-4-(3-pyrrolidin-1-yl-propyl)-piperidin-1-yl]-ethoxy]-ethyl]-methanesulfonic acid amide] |  | 63 |
| CS(=O)(=O)N(CCOCC(=O)N1CCC(CCCN2CCCC2)(c2ccncc2)CC1)C(c1ccccc1)c1ccccc1 [Example 66, N-Benzhydryl-N-[2-[2-oxo-2-[4-pyridin-4-yl-4-(3-pyrrolidin-1-yl-propyl)-piperidin-1-yl]-ethoxy]-ethyl]-methanesulfonic acid amide] |  | 99 |
| COc1cc(C)c(S(=O)(=O)N2c3ccccc3OCC2COCC(=O)N2CCC(CCCN3CCCC3)(c3ccncc3)CC2)c(C)c1 (centres unmarked) [Example 69, 2-[[4-[(4-Methoxy-2,6-dimethyl-phenyl)sulfonyl]-3,4-dihydro-2H-[1,4]benzoxazin-3-yl]-methoxy]-1-[4-pyridin-4-yl-4-(3-pyrrolidin-1-yl-propyl)-piperidin-1-yl]-ethanone] | 99 |  |
| COc1cc(C)c(S(=O)(=O)N2c3ccccc3OCC2COCC(=O)N2CCC(CCCN3CCCC3)(c3ccncc3)CC2)c(C)c1 (centres unmarked) [Example 70, 2-[[4-[(4-Methoxy-2,6-dimethyl-phenyl)sulfonyl]-3,4-dihydro-2H-[1,4]benzoxazin-3-yl]-methoxy]-1-[4-pyridin-4-yl-4-(3-pyrrolidin-1-yl-propyl)-piperidin-1-yl]-ethanone] |  | 100 |
| O=C(COCC1COc2ccccc2N1S(=O)(=O)c1ccccc1C(F)(F)F)N1CCC(CCCN2CCCC2)(c2cccnc2)CC1 (centres unmarked) [Example 73, 1-[4-Pyridin-3-yl-4-(3-pyrrolidin-1-yl-propyl)-piperidin-1-yl]-2-[[4-[[2-(trifluoromethyl)-phenyl]sulfonyl]-3,4-dihydro-2H-[1,4]benzoxazin-3-yl]-methoxy]-ethanone] | 84 |  |
| O=C(COCC1COc2ccccc2N1S(=O)(=O)c1ccccc1C(F)(F)F)N1CCC(CCCN2CCCC2)(c2ccncc2)CC1 (centres unmarked) [Example 75, 1-[4-Pyridin-4-yl-4-(3-pyrrolidin-1-yl-propyl)-piperidin-1-yl]-2-[[4-[[2-(trifluoromethyl)-phenyl]sulfonyl]-3,4-dihydro-2H-[1,4]benzoxazin-3-yl]-methoxy]-ethanone] | 68 |  |
